Holding throughout (assay type): biochemical
Holding throughout (details): continuous assay 60 min, reaction initiated by adding enzyme

One test addresses T1, CPP32 (Homo sapiens, UniProt P42574).
T1 sequence (P42574 29-175 limits assumed): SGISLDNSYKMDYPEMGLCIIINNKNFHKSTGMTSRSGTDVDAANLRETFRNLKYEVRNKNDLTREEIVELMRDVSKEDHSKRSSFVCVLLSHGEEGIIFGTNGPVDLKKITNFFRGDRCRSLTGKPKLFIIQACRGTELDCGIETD
T1 sequence (P42574 176-277 limits assumed): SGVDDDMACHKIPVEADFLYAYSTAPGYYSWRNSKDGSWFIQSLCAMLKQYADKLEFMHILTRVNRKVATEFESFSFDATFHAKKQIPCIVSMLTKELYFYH
Description: Dissociation constant Ki and irreversible rate constant k3 for irreversible inhibitors, CPP32.

For the next test, the target named is T2, mICE (Mus musculus, UniProt P29452).
T2 sequence (P29452 123-296 limits assumed): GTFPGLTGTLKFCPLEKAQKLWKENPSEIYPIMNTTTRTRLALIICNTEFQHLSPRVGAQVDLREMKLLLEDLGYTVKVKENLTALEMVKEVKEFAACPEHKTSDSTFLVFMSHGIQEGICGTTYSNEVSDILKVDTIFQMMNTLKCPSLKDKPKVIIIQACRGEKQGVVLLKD
T2 sequence (P29452 315-402 limits assumed): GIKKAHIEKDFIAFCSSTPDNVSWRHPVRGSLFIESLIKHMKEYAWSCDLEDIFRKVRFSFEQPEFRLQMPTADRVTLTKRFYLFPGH
Description: Dissociation constant Ki and irreversible rate constant k3 for irreversible inhibitors, ICE.

The next test concerns the target T3, MCH-2 (Homo sapiens, UniProt P55212).
T3 sequence (P55212 24-179 limits assumed): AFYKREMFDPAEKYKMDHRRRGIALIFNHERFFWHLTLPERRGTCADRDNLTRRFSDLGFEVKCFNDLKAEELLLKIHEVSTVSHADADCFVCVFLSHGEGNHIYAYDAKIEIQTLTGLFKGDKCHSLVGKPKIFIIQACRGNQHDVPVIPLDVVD
T3 sequence (P55212 194-293 limits assumed): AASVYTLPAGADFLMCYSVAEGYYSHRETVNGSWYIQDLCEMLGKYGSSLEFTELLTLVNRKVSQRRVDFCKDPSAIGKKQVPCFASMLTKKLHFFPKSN
Description: Dissociation constant Ki and irreversible rate constant k3 for irreversible inhibitors, Mch2.

The target in the next test is MCH-5 (Homo sapiens, UniProt Q14790). Nature of the test: Dissociation constant Ki and irreversible rate constant k3 for irreversible inhibitors, Mch5.
Sequence of MCH-5 (Q14790 217-374 limits assumed, species assumed): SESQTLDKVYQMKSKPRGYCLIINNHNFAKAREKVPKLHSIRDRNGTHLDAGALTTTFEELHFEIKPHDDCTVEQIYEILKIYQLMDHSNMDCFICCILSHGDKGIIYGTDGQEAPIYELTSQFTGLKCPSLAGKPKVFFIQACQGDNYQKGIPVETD
Sequence of MCH-5 (Q14790 385-479 limits assumed, species assumed): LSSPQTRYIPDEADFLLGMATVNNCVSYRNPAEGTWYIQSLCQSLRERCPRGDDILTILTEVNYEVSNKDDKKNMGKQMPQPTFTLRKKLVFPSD

Regarding `Cc1nnc(SCC(=O)[C@H](CC(=O)O)NC(=O)[C@@H](NC(=O)COc2cccc3ccccc23)C(C)C)s1` [Example 128], on CPP32, the “CPP32 k3/Ki” value is given as 5,240 M^−1s^−1 and the Ki worked out at 254 nM. Besides, on mICE, the Ki amounted to 213 nM and the “mICE k3/Ki” value is 5,480 M^−1s^−1. Further, at MCH-2, the Ki came out at 2410 nM and the “MCH-2 k3/Ki” value turned out to be 83 M⁻¹ s⁻¹. Further, at MCH-5, the Ki came to 4480 nM and the “MCH-5 k3/Ki” value is 0 M⁻¹ s⁻¹.
As for `CC(C)[C@H](NC(=O)COc1cccc2ccccc12)C(=O)N[C@@H](CC(=O)O)C(=O)COc1cc(C(F)(F)F)nn1-c1ccccc1` [Example 143], at CPP32, the “CPP32 k3/Ki” value is on record as 121,000 M^−1s^−1 and the Ki was determined as 50 nM. For the same molecule, at mICE, the Ki amounted to 205 nM and the “mICE k3/Ki” value is reported as 28,300 M^−1s^−1. In addition, at MCH-2, the Ki was 28 nM and the “MCH-2 k3/Ki” value was 8,500 M^−1s^−1. In addition, at MCH-5, the Ki was found to be 37 nM and the “MCH-5 k3/Ki” value is listed as 14,500 M^−1s^−1.
As to `COC(=O)c1cc(OCC(=O)[C@H](CC(=O)O)NC(=O)[C@@H](NC(=O)COc2cccc3ccccc23)C(C)C)no1` [Example 144], at CPP32, the “CPP32 k3/Ki” value was 144,000 M^−1s^−1 and the Ki stood at 54 nM. At mICE, the Ki is 126 nM and the “mICE k3/Ki” value is given as 42,500 M^−1s^−1. Moreover, at MCH-2, the Ki was found to be 70 nM and the “MCH-2 k3/Ki” value is reported as 5,800 M^−1s^−1. On MCH-5, the Ki is 155 nM and the “MCH-5 k3/Ki” value was 6,340 M^−1s^−1.
As for `CC(C)[C@H](NC(=O)COc1ccccc1-c1ccccc1)C(=O)N[C@@H](CC(=O)O)C(=O)COC(=O)c1c(Cl)cccc1Cl` [Example 150], at CPP32, the “CPP32 k3/Ki” value is recorded as 698,000 M^−1s^−1 and the Ki was 16 nM. At mICE, the Ki was found to be 263 nM and the “mICE k3/Ki” value is reported as 43,700 M^−1s^−1. On MCH-2, the Ki is 9 nM and the “MCH-2 k3/Ki” value is listed as 400,000 M^−1s^−1. On MCH-5, the Ki was determined as 127 nM and the “MCH-5 k3/Ki” value was 9,340 M^−1s^−1.
As for `CC(C)[C@H](NC(=O)COc1ccccc1-c1ccccc1)C(=O)N[C@@H](CC(=O)O)C(=O)COc1c(F)cc(F)cc1F` [Example 151], on CPP32, the “CPP32 k3/Ki” value is reported as 257,000 M^−1s^−1 and the Ki amounted to 32 nM. For the same molecule, at mICE, the Ki was 349 nM and the “mICE k3/Ki” value is given as 29,600 M^−1s^−1. In addition, at MCH-2, the Ki came to 23 nM and the “MCH-2 k3/Ki” value was 88,100 M^−1s^−1. Besides, at MCH-5, the Ki is 270 nM and the “MCH-5 k3/Ki” value is 5,900 M^−1s^−1.
In the case of `CC(C)[C@H](NC(=O)COc1ccccc1-c1ccccc1)C(=O)N[C@@H](CC(=O)O)C(=O)COc1c(F)c(F)cc(F)c1F` [Example 152], at CPP32, the “CPP32 k3/Ki” value is 241,000 M^−1s^−1 and the Ki is 29 nM. Also, at mICE, the Ki was found to be 191 nM and the “mICE k3/Ki” value is recorded as 29,300 M^−1s^−1. In addition, at MCH-2, the Ki was 11 nM and the “MCH-2 k3/Ki” value was 191,000 M^−1s^−1. In addition, on MCH-5, the Ki was 66 nM and the “MCH-5 k3/Ki” value is listed as 16,600 M^−1s^−1.
For the molecule `CC(C)[C@H](NC(=O)COc1ccc2ccccc2c1)C(=O)N[C@@H](CC(=O)O)C(=O)COC(=O)c1c(Cl)cccc1Cl` [Example 155], at CPP32, the “CPP32 k3/Ki” value is 206,000 M^−1s^−1 and the Ki stood at 47 nM. For the same molecule, at mICE, the Ki was found to be 168 nM and the “mICE k3/Ki” value is 59,800 M^−1s^−1. On MCH-2, the Ki was 15 nM and the “MCH-2 k3/Ki” value was 166,000 M^−1s^−1. Also, on MCH-5, the Ki came to 136 nM and the “MCH-5 k3/Ki” value is 7,910 M^−1s^−1.
On to `CC(C)[C@H](NC(=O)COc1ccc2ccccc2c1)C(=O)N[C@@H](CC(=O)O)C(=O)COc1c(F)cc(F)cc1F` [Example 156], for which, at CPP32, the “CPP32 k3/Ki” value was 49,700 M^−1s^−1 and the Ki was found to be 148 nM. For the same molecule, at mICE, the Ki came out at 438 nM and the “mICE k3/Ki” value was 20,200 M^−1s^−1. Further, on MCH-2, the Ki came out at 52 nM and the “MCH-2 k3/Ki” value is recorded as 14,900 M^−1s^−1. At MCH-5, the Ki is 293 nM and the “MCH-5 k3/Ki” value was 3,990 M^−1s^−1.
For the molecule `CC(C)[C@H](NC(=O)COc1ccc2ccccc2c1)C(=O)N[C@@H](CC(=O)O)C(=O)COc1c(F)c(F)cc(F)c1F` [Example 157], at CPP32, the “CPP32 k3/Ki” value is listed as 53,300 M^−1s^−1 and the Ki was determined as 257 nM. In addition, on mICE, the Ki turned out to be 225 nM and the “mICE k3/Ki” value is given as 39,300 M^−1s^−1. Further, on MCH-2, the Ki stood at 22 nM and the “MCH-2 k3/Ki” value was 72,000 M^−1s^−1. In addition, at MCH-5, the Ki is 72 nM and the “MCH-5 k3/Ki” value is reported as 11,600 M^−1s^−1.
`CC(C)[C@H](NC(=O)CCOc1cccc2ccccc12)C(=O)N[C@@H](CC(=O)O)C(=O)COC(=O)c1c(Cl)cccc1Cl` [Example 158]: at CPP32, the “CPP32 k3/Ki” value is reported as 98,200 M^−1s^−1 and the Ki worked out at 109 nM. Moreover, at mICE, the Ki stood at 168 nM and the “mICE k3/Ki” value is given as 34,300 M^−1s^−1. Further, on MCH-2, the Ki turned out to be 22 nM and the “MCH-2 k3/Ki” value is recorded as 103,000 M^−1s^−1. Besides, on MCH-5, the Ki came to 264 nM and the “MCH-5 k3/Ki” value is recorded as 1,610 M^−1s^−1.
Turning to `CC(C)[C@H](NC(=O)CCOc1cccc2ccccc12)C(=O)N[C@@H](CC(=O)O)C(=O)COc1cc(C(F)(F)F)n(-c2ccccc2)n1` [Example 159], on CPP32, the “CPP32 k3/Ki” value was 11,700 M^−1s^−1 and the Ki was 1180 nM. Also, at mICE, the Ki was determined as 1370 nM and the “mICE k3/Ki” value was 4,580 M^−1s^−1. Moreover, at MCH-2, the Ki was 113 nM and the “MCH-2 k3/Ki” value was 15,000 M^−1s^−1. Also, on MCH-5, the Ki came to 10700 nM and the “MCH-5 k3/Ki” value was found to be 86 M⁻¹ s⁻¹.
As for `CC(C)[C@H](NC(=O)CCOc1ccccc1)C(=O)N[C@@H](CC(=O)O)C(=O)COc1c(F)c(F)cc(F)c1F` [Example 160, (3S)-3-[N-(3′-(Phenoxy)Propionyl)Valinyl]Amino-5-(2,3,5,6-Tetrafluorophenoxy)-4-Oxopentanoic Acid], at CPP32, the “CPP32 k3/Ki” value is listed as 33,000 M^−1s^−1 and the Ki came out at 132 nM. Further, on mICE, the Ki came out at 1180 nM and the “mICE k3/Ki” value is 11,400 M^−1s^−1. Besides, on MCH-2, the Ki is 93 nM and the “MCH-2 k3/Ki” value is listed as 36,600 M^−1s^−1. Also, at MCH-5, the Ki is 351 nM and the “MCH-5 k3/Ki” value was 3,680 M^−1s^−1.
As for `CC(C)C[C@H](NC(=O)COc1ccccc1-c1ccccc1)C(=O)N[C@@H](CC(=O)O)C(=O)COP(=O)(c1ccccc1)c1ccccc1` [Example 161], on CPP32, the “CPP32 k3/Ki” value was 319,000 M^−1s^−1 and the Ki came to 19 nM. Also, on mICE, the Ki turned out to be 98 nM and the “mICE k3/Ki” value was 86,400 M^−1s^−1. Also, on MCH-2, the Ki worked out at 30 nM and the “MCH-2 k3/Ki” value was 149,000 M^−1s^−1. Further, on MCH-5, the Ki was determined as 105 nM and the “MCH-5 k3/Ki” value is reported as 15,200 M^−1s^−1.
As to `CC(C)C[C@H](NC(=O)COc1ccccc1-c1ccccc1)C(=O)N[C@@H](CC(=O)O)C(=O)COC(=O)c1c(Cl)cccc1Cl` [Example 162], at CPP32, the “CPP32 k3/Ki” value is reported as 246,000 M^−1s^−1 and the Ki was determined as 44 nM. Moreover, at mICE, the Ki was found to be 319 nM and the “mICE k3/Ki” value is on record as 22,200 M^−1s^−1. Besides, at MCH-2, the Ki amounted to 29 nM and the “MCH-2 k3/Ki” value is 104,000 M^−1s^−1. At MCH-5, the Ki was 128 nM and the “MCH-5 k3/Ki” value is on record as 5,290 M^−1s^−1.
For the molecule `CC(C)C[C@H](NC(=O)COc1ccccc1-c1ccccc1)C(=O)N[C@@H](CC(=O)O)C(=O)COc1c(F)cc(F)cc1F` [Example 163], at CPP32, the “CPP32 k3/Ki” value was 308,000 M^−1s^−1 and the Ki was 23 nM. For the same molecule, on mICE, the Ki worked out at 415 nM and the “mICE k3/Ki” value was 37,800 M^−1s^−1. Also, at MCH-2, the Ki amounted to 12 nM and the “MCH-2 k3/Ki” value is recorded as 110,000 M^−1s^−1. Also, at MCH-5, the Ki was determined as 252 nM and the “MCH-5 k3/Ki” value is reported as 7,960 M^−1s^−1.
As to `CC(C)C[C@H](NC(=O)COc1ccccc1-c1ccccc1)C(=O)N[C@@H](CC(=O)O)C(=O)COc1c(F)c(F)cc(F)c1F` [Example 164], on CPP32, the “CPP32 k3/Ki” value is given as 137,000 M^−1s^−1 and the Ki came to 63 nM. Moreover, on mICE, the Ki came to 467 nM and the “mICE k3/Ki” value is 24,000 M^−1s^−1. On MCH-2, the Ki turned out to be 23 nM and the “MCH-2 k3/Ki” value is on record as 91,700 M^−1s^−1. For the same molecule, at MCH-5, the Ki is 223 nM and the “MCH-5 k3/Ki” value was 6,190 M^−1s^−1.

The values are drawn from patent publication US7157430B2, “(Substituted)acyl dipeptidyl inhibitors of the ICE/CED-3 family of cysteine proteases” (Idun Pharmaceuticals, Inc., priority 1998, dated 2007).
